# Assay results as given in patent publication US9096833B2, “Methods of treating pre-malignant ductal cancer with autophagy inhibitors” (GEORGE MASON UNIVERSITY, priority 2009, dated 2015).
# How the values were obtained:
# [1] = system: autophagy associated pathways; experiment: Cell signaling pathway mapping by reverse phase protein microarray (RPMA) of DCIS spheroids pre and post chloroquine; type: cell-based, human; details: for autophagy associated signal pathway proteins/endpoints (Atg5, AKT, ERK, mTOR, IRS-1, p38 etc.) by RPMA: chloroquine phosphate 50 μM for 4 days, spheroids pre vs post treatment, n=3
# Protocol: (§1) Pharmacological inhibition of autophagy. […] CO-containing medium was replaced three times per week for a period of 6 months.
# (§2) Statistics. The Student T-test, two tailed with Welch's correction, was used to calculate the p-value, and to determine the statistical difference of epithelial outgrowth area before and after CQ treatment. P values <0.05 were considered significant. Standard deviation (SO) or standard error of the mean (SEM) was calculated for group comparisons. Wilcoxon rank sum was used to determine the differences between CQ treated and untreated groups for the reverse phase protein arrays. A p=0.1 was considered different for small sample sizes.
# [2] = system: DCIS organoid cell cultures; experiment: H&E histomorphology of chloroquine treated DCIS organoid cell cultures; type: cell-based, human; details: chloroquine phosphate (50 μM)
# Protocol: as §1
# Immunohistochemistry. Formalin fixed murine tissue or DCIS organoids were processed and paraffin embedded by commercial laboratories (AML Laboratories, Inc, Rosedale, Md. or Bi-Biomics, Nampa, Id.). Formalin fixed paraffin embedded (FFPE) tissue sections (5 μm or 1 μm thickness) mounted on positively charged glass slides were baked at 56° C. for 20 min., deparaffinized in xylene and rehydrated in a series of graded alcohols (100%, 95%, and 70%) with a final rinse in wash buffer (Dako, Carpinteria, Calif., USA). Antigen retrieval, when necessary, was performed with proteinase K or heat induced epitope retrieval. Immunostaining was performed on a Dako Autostainer with an Envision+HRP staining kit (Dako) per manufacturer's instructions. Stained tissue sections were counterstained with Hematoxylin (Dako), rinsed in distilled water and developed in Scott's Tap Water Substitute solution. Cover slips were applied using aqueous mounting medium (Paramount; Dako). Images were captured with an Olympus BX51 microscope using 4×, 10×, 20×, or 100× objectives.
# [3] = system: DCIS malignant precursor cells
# Protocol: Tissue collection. […] Gross tissue pathology at the time of procurement was assessed by a board certified pathologist. Tissue containing DCIS lesions was excised for further macrodissection and rinsed in sterile phosphate buffered saline to remove sentinel lymph node dye. Using sterile technique, ductal tissue was dissected from surrounding breast adipose/fibrous tissue. The ductal tissue was rinsed in serum free DMEM/F12 medium (Invitrogen, Carlsbad, Calif., USA) supplemented with human recombinant EGF (10 ng/mL; Cell Signaling Technology, Danvers, Mass., USA or Millipore, Billerica, Mass., USA), insulin (10 μg/mL; Roche, Indianapolis, Ind., USA), streptomycin sulfate (100 μg/mL; Sigma, St. Louis, Mo., USA) and gentamicin sulfate (20 μg/mL; Sigma) prior to distribution in culture flasks (MidSci, St. Louis, Mo., USA). Ductal tissue was allowed to attach to the culture surface and observed daily for cellular outgrowths. Non-adherent organoids were removed from the culture flask.
# Organoid ex vivo culture. Dissected breast ductal tissue was grown in 115 cm^2 TPP reclosable flasks (MidSci) or 10 cm^2 culture tubes (MidSci) in serum free DMEM/F12 medium supplemented with human recombinant EGF (10 ng/mL), insulin (10 μg/mL), streptomycin sulfate (100 μg/mL) and gentamicin sulfate (20 μg/mL), with or without 0.36% (v/v) murine Engelbreth-Holm-Swarm (EHS) derived, growth factor reduced, basement membrane extract (Trevigen, Gaithersburg, Md., USA) at 37° C. in a humidified 5.0% CO2 atmosphere. Medium was replaced three times per week. Cultures were maintained continuously for up to one year. Periodically, organoids were removed, under microscopic visualization, for propagation into new culture flasks or phenotypic and molecular analysis.
# as §1, §2
# [4] = system: DCIS organoid culture spheroids; experiment: Autophagosome lysosome imaging with LysoTracker Red in DCIS organoid culture; type: cell-based, human; details: chloroquine phosphate (50 μM) for 2 weeks
smiles,measurement,setting,value
"CCN(CC)CCCC(C)Nc1ccnc2cc(Cl)ccc12 (stereo not drawn) [chloroquine, N′-(7-chloroquinolin-4-yl)-N,N-diethyl-pentane-1,4-diamine]",apoptosis (elevation of cleaved PARP Asp214),[1]; as early as 48 hours post treatment,induced apoptosis
same,"autophagy associated signal pathway proteins/endpoints (Atg5, AKT, ERK, mTOR, IRS-1, p38 etc.) by RPMA",[1]; listed as CQ,suppressed
same,"autophagy associated signal pathway proteins/endpoints (Atg5, AKT, ERK, mTOR, IRS-1, p38 etc.) by RPMA",[1]; listed as Chloroquine,markedly inhibited
same,"autophagy associated signal pathway proteins/endpoints (Atg5, AKT, ERK, mTOR, IRS-1, p38 etc.) by RPMA",[1]; listed as chloroquine phosphate,suppressed autophagy associated proteins
same,histology of organoid cultured in the presence of chloroquine for 6 months,[2]; 6 months,complete absence of cellular outgrowths and degenerated cells within the duct
same,histology of organoid 2 days post chloroquine treatment,[2]; 2 days,Degeneration of the invading DCIS cells within the organoid
same,explants that did not have any spheroids following chloroquine treatment,"[3]; case 09-148, chloroquine phosphate 50 μM",12 out of 14
same,spheroids after treatment,"[3]; case 09-301, n=3, 20.5±7.8 prior to treatment",no spheroids observed
same,ex vivo invasion of autologous stroma,[3]; chloroquine phosphate,suppressed ex vivo invasion of autologous stroma
same,"inhibition of spheroid outgrowth, CQ in combination with tamoxifen","[3]; cultured DCIS cells, in combination with anti-estrogen compound (tamoxifen)",pronounced effect
same,"number of spheroids generated post chloroquine treatment, majority of explants","[3]; two different patient DCIS cases, up to 113 spheroids per duct organoid untreated",zero
same,spheroid integrity and LysoTracker Red distribution,[4],"Dissociation of the spheroid, and diffuse accumulation of LysoTracker Red"
